Drawing on ChEMBL document CHEMBL5137001, “Examination of multiple Trypanosoma cruzi targets in a new drug discovery approach for Chagas disease” (Bioorg Med Chem, 2022), this text covers IC50, Ki and Kd for 21 compounds.

Molecules are shown by their SMILES.

For assay [1], the target named is T1, Triosephosphate isomerase, glycosomal (Trypanosoma cruzi, UniProt P52270). As to the kind of experiment: Inhibition of recombinant Trypanosoma cruzi TIM using glyceraldehyde 3-phosphate as substrate.
Assay [2] deals with T2, Bifunctional dihydrofolate reductase-thymidylate synthase (Trypanosoma cruzi, UniProt Q27793). The experiment in a line: Inhibition of recombinant Trypanosoma cruzi DHFR-TS assessed as inhibition constant.
The target of assay [3] is T1, Triosephosphate isomerase, glycosomal. The experiment in a line: Inhibition of Trypanosoma cruzi TIM expressed in Escherichia coli using glyceraldehyde 3-phosphate as substrate preincubated for 2 hrs in presence of NADH/alphaGDPH by spectrophotometry.
Assay [4] shares this target. As to the kind of experiment: Inhibition of Trypanosoma cruzi TIM.
Assay [5] shares this target. As to the kind of experiment: Inhibition of Trypanosoma cruzi TIM expressed in Escherichia coli using glyceraldehyde 3-phosphate as substrate in presence of NADH/alphaGDPH measured after 2 hrs by spectrophotometry.
Assay [6] deals with T3, Cruzipain (Trypanosoma cruzi, UniProt P25779). As to the kind of experiment: Inhibition of Trypanosoma cruzi Cruzaine using Z-Phe-Arg-AMC as substrate preincubated for 15 mins measured for 10 mins by […].
The target in assay [7] is T3, Cruzipain. As to the kind of experiment: Inhibition of Trypanosoma cruzi Cruzaine.
Assay [8] in a line: Inhibition of Trypanosoma cruzi DHODH assessed as inhibition constant measured for 5 mins by spectrophotometry.
In assay [9] the target is Sterol 14-alpha demethylase (Trypanosoma cruzi (strain CL Brener), UniProt Q7Z1V1). As to the kind of experiment: Displacement of [3H]-Eubricol from C-terminal His-tagged full-length Trypanosoma cruzi Tulahuen strain CYP51 expressed in Escherichia coli HMS174(DE3) assessed as dissociation constant preincubated for 5 mins measured after 60 mins by enzymatic assay. In general terms: Loss of bound radioactivity is the signal in a displacement assay; it reports binding, not function.

Assay [10] concerns the target T4, Trypanothione reductase (Trypanosoma cruzi, UniProt P28593). As to the kind of experiment: Inhibition of Trypanosoma cruzi TR assessed as inhibition constant.
Assay [11] has as its target T4, Trypanothione reductase. The experiment in a line: Inhibition of Trypanosoma cruzi TR assessed as inhibition constant in presence of NADPH.
The target of assay [12] is T3, Cruzipain. As to the kind of experiment: Inhibition of Cruzaine derived from epimastigotes of Trypanosoma cruzi Tul2 strain using Z-FR-AMC as substrate assessed as release of 7-amino-4-methylcoumarin by fluorimetry.
Assay [13] addresses T2, Bifunctional dihydrofolate reductase-thymidylate synthase. The experiment in a line: Inhibition of Trypanosoma cruzi DHFR-TS assessed as inhibition constant using DHF as substrate in presence of NADPH by spectrophotometry.
Assay [14] shares this target. The experiment in a line: Inhibition of Trypanosoma cruzi DHFR-TS in presence of NADPH by spectrophotometry.
A short description of assay [15]: Inhibition of Trypanosoma cruzi PTR1 using folic acid as substrate in presence of NADPH by spectrophotometry.

Broadly, the IC50 is the concentration that inhibits the measured activity by half. As a reminder, the Ki is the equilibrium dissociation constant of an inhibitor or competing ligand from its target. A word on the Kd: it is the equilibrium constant for the complex coming apart.

T3 sequence (P25779 whole entry): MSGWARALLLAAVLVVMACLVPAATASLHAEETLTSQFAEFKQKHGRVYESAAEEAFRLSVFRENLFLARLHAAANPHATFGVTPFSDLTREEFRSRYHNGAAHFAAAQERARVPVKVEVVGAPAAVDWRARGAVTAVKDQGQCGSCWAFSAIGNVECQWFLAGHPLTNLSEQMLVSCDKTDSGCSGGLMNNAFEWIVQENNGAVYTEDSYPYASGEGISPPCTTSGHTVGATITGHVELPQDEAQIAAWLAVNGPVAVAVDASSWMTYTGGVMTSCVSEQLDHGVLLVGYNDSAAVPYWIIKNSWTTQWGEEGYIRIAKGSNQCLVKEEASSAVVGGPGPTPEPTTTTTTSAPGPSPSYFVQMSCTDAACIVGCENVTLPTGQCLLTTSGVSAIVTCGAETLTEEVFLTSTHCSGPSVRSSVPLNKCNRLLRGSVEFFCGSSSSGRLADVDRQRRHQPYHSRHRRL
T4 sequence (P28593 whole entry): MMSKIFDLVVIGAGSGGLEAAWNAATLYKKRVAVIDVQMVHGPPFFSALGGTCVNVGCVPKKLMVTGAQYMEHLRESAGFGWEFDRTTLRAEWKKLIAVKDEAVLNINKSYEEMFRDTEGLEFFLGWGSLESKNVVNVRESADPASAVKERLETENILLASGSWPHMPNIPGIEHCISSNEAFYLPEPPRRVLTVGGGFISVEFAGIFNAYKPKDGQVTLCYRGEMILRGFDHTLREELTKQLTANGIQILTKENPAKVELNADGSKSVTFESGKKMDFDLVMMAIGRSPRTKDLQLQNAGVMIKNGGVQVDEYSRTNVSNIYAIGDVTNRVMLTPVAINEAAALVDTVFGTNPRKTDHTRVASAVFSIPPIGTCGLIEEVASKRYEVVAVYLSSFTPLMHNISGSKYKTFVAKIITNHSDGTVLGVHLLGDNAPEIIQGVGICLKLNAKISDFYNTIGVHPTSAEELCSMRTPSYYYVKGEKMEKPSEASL
T2 sequence (Q27793 whole entry): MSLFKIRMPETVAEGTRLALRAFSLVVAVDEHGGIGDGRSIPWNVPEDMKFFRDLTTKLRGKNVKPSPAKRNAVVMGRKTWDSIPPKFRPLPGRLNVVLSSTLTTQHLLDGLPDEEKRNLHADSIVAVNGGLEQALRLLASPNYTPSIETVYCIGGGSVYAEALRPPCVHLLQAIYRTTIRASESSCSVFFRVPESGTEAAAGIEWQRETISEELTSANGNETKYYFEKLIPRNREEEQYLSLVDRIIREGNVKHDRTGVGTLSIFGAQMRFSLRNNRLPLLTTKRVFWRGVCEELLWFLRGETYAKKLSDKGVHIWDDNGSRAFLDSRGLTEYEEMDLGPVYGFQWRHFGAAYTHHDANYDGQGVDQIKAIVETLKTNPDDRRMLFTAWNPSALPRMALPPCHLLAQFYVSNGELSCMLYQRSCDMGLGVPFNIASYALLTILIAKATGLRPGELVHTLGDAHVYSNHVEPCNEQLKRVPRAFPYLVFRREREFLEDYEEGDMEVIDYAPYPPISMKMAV
T1 sequence (P52270 whole entry): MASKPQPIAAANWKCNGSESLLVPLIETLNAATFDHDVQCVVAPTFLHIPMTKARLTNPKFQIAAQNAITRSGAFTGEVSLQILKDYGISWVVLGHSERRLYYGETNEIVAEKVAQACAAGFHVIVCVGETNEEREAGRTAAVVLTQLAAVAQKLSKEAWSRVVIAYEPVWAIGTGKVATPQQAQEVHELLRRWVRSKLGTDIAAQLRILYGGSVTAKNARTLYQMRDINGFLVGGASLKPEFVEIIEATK
Sterol 14-alpha demethylase, sequence (Q7Z1V1 whole entry): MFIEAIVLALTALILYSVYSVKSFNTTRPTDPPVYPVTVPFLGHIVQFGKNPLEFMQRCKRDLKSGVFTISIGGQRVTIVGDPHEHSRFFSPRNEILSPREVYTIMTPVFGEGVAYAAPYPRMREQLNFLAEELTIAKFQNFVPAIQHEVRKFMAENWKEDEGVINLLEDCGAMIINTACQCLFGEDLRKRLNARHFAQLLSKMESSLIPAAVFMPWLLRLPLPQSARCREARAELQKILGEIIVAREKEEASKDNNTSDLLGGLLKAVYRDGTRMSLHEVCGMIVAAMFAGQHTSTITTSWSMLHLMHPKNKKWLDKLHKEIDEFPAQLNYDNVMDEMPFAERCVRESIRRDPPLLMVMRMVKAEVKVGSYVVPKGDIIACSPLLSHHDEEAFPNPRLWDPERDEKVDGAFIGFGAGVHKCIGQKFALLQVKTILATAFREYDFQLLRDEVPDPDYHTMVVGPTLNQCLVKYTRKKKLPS

Regarding `O=S(=O)(O)CCCSc1nc2ccccc2s1`, the IC50 in assay [1] came out at 33 µM.
Consider `CC(C)Oc1cccc(Cc2cnc(N)nc2N)c1`, for which the Ki in [2] was found to be 0.023 µM.
For `Cc1ccc2nc(-c3ccc4nc(-c5ccc(N)cc5)sc4c3)sc2c1S(=O)(=O)O`, in assay [1], the IC50 was 8 µM.
With `[O-][NH+]1c2ccc(O)cc2[NH+]([O-])c2cc(Cl)c(Cl)cc21` (configuration not stated), in [3], the IC50 was 26 µM.
On to `O=C(/C=C/C=C/c1ccco1)/C=C/C=C/c1ccco1`, for which the IC50 in [4] turned out to be 3 µM.
In the case of `COc1ccc(-c2c/c(=[S+]/CC(C)=O)ss2)cc1`, the IC50 in [5] turned out to be 11 µM.
`O=C1/C(=C/C=C/c2ccco2)CCC/C1=C\C=C\c1ccco1`: the IC50 against Cruzipain [6] was 37 µM.
Consider `CCOC(=O)/C=C/C(=O)[C@H](CC(C)C)NC(=O)[C@@H](CC(=O)c1ccccc1)Cc1ccccc1`, for which the IC50 at Cruzipain [7] was determined as 20 µM.
With `O=C1NC(=O)C(CCc2ccc3cc(C(=O)O)ccc3c2)C(C(=O)O)N1` (configuration not stated), in assay [8], the Ki was determined as 0.02 µM.
For the compound `OC(Cn1cnnn1)(c1ccc(F)cc1F)C(F)(F)c1ccc(-c2ccc(OCC(F)(F)F)cn2)cn1` (configuration not stated), the Kd in assay [9] came to 0.024 µM.
`O=C(CSc1nc2ccccc2[nH]1)Nc1ncc([N+](=O)[O-])s1` returned an IC50 in [4] of 3 µM.
Regarding `Nc1ncc(Cc2ccc(Oc3ccccc3)cc2)c(N)n1`, the Ki in [2] is 0.03 µM.
Take `CC(C)CC(=O)c1ccc2c(c1)[n+]([O-])c(C(=O)C(C)C)c(C(F)(F)F)[n+]2[O-]`: the Ki at Trypanothione reductase [10] was 19 µM.
Regarding `CN1CCN(CCn2ccc3cc(-c4ncc(C5(N6CCCC6)CCCCC5)s4)ccc32)CC1`, the inhibition constant (Ki) at Trypanothione reductase [10] stood at 3.8 µM.
Turning to `COc1ccc(NC(=O)COC(=O)C(CC(C)C)N2C(=O)C(Cl)=C(Cl)C2=O)cc1` (configuration not stated), the IC50 at Cruzipain [7] amounted to 0.6 µM.
As for `O=C1C(Br)=C(Oc2ccc3ccccc3c2)C(=O)c2ccccc21`, the Ki on Trypanothione reductase [11] was 1.1 µM.
For `c1ccc(-c2sc(C3(N4CCCC4)CCCCC3)cc2-c2ccc3cc[nH]c3c2)cc1`, the Ki on Trypanothione reductase [10] was 10 µM.
Take `Cc1ccc(C)c(OC2=CC(=O)c3ccncc3C2=O)c1`: on Trypanothione reductase [11], the Ki is 6 µM.
With `CC(C)CC(NC(=O)c1ccc(-c2ccccc2)o1)C(=O)NC1(C#N)CC1` (configuration not stated), the IC50 on Cruzipain [12] turned out to be 30.3 µM.
Turning to `COc1cc(NCc2ccc3nc(N)ncc3c2C)cc(OC)c1OC`, in assay [13], the Ki was determined as 0.0066 µM.
For `CN(Cc1cnc2nc(N)nc(N)c2n1)c1ccc(C(=O)N[C@@H](CCC(=O)O)C(=O)O)cc1` [METHOTREXATE], the IC50 is 0.11 µM in [14] and 0.038 nM in [15].
